≈ marks a conversion by molar mass, not a printed value.
Columns and labels:
[1] = tested on: DHFR (human versus Mycobacterium tuberculosis H37Rv); experiment: Selectivity index, ratio of IC50 for human DHFR to IC50 for Mycobacterium tuberculosis H37Rv DHFR expressed in Escherichia coli BL21(DE3); type: toxicity; conditions: human and Mycobacterium tuberculosis H37Rv; read-out: Ratio IC50
[2] = Sub-acute toxicity in albino Wistar rat assessed as adverse effect at 1.25 to 10 mg/kg, po administered for 28 days; type: organism-based; conditions: in vivo, 672 h
[3] = Sub-acute toxicity in albino Wistar rat assessed as change in body weight at 1.25 to 10 mg/kg, po administered for 28 days; type: organism-based; conditions: in vivo, 672 h
[4] = Sub-acute toxicity in albino Wistar rat assessed as convulsion at 1.25 to 10 mg/kg, po administered for 28 days; type: organism-based; conditions: in vivo, 672 h
[5] = Sub-acute toxicity in albino Wistar rat assessed as salivation at 1.25 to 10 mg/kg, po administered for 28 days; type: organism-based; conditions: in vivo, 672 h
[6] = Sub-acute toxicity in albino Wistar rat assessed as effect on sleep at 1.25 to 10 mg/kg, po administered for 28 days; type: organism-based; conditions: in vivo, 672 h
[7] = Sub-acute toxicity in albino Wistar rat assessed as tremors at 1.25 to 10 mg/kg, po administered for 28 days; type: organism-based; conditions: in vivo, 672 h
[8] = Sub-acute toxicity in albino Wistar rat assessed as diarrhea at 1.25 to 10 mg/kg, po administered for 28 days; type: organism-based; conditions: in vivo, 672 h
[9] = Sub-acute toxicity in albino Wistar rat assessed as lethargy at 1.25 to 10 mg/kg, po administered for 28 days; type: organism-based; conditions: in vivo, 672 h
[10] = Sub-acute toxicity in albino Wistar rat assessed as coma at 1.25 to 10 mg/kg, po administered for 28 days; type: organism-based; conditions: in vivo, 672 h
[11] = Sub-acute toxicity in albino Wistar rat assessed as change in colour at 1.25 to 10 mg/kg, po administered for 28 days; type: organism-based; conditions: in vivo, 672 h
[12] = Sub-acute toxicity in albino Wistar rat assessed as change in respiration at 1.25 to 10 mg/kg, po administered for 28 days; type: organism-based; conditions: in vivo, 672 h
[13] = Sub-acute toxicity in albino Wistar rat assessed as change in autonomic nervous system at 1.25 to 10 mg/kg, po administered for 28 days; type: organism-based; conditions: in vivo, 672 h
[14] = Sub-acute toxicity in albino Wistar rat assessed as change in central nervous system at 1.25 to 10 mg/kg, po administered for 28 days; type: organism-based; conditions: in vivo, 672 h
[15] = Sub-acute toxicity in albino Wistar rat assessed as effect on skin at 1.25 to 10 mg/kg, po administered for 28 days; type: organism-based; conditions: in vivo, 672 h
[16] = Sub-acute toxicity in albino Wistar rat assessed as effect on eyes at 1.25 to 10 mg/kg, po administered for 28 days; type: organism-based; conditions: in vivo, 672 h
[17] = Sub-acute toxicity in albino Wistar rat assessed as effect on somatomotor system at 1.25 to 10 mg/kg, po administered for 28 days; type: organism-based; conditions: in vivo, 672 h
[18] = Sub-acute toxicity in albino Wistar rat assessed as change in Urea level at 1.25 mg/kg, po administered for 28 days measured post last dose (reference value: 24.54 +/- 2.12 mg/dl); type: organism-based; conditions: in vivo, 672 h
[19] = Sub-acute toxicity in albino Wistar rat assessed as change in SOD level per mg protein at 1.25 mg/kg, po administered for 28 days measured post last dose (reference value: 4.85 +/- 0.34 U); type: organism-based; conditions: in vivo, 672 h
[20] = Sub-acute toxicity in albino Wistar rat assessed as change in CAT level per mg protein at 1.25 mg/kg, po administered for 28 days measured post last dose (reference value: 28.45 +/- 2.1 U); type: organism-based; conditions: in vivo, 672 h
[21] = Sub-acute toxicity in albino Wistar rat assessed as change in MDA level per mg protein at 1.25 mg/kg, po administered for 28 days measured post last dose (reference value: 0.91 +/- 0.1 nmol); type: organism-based; conditions: in vivo, 672 h
[22] = Sub-acute toxicity in albino Wistar rat assessed as change in AST level at 2.5 mg/kg, po administered for 28 days measured post last dose (reference value: 22.5 +/- 1.76 U/L); type: organism-based; conditions: in vivo, 672 h
[23] = Sub-acute toxicity in albino Wistar rat assessed as change in ALT level at 2.5 mg/kg, po administered for 28 days measured post last dose (reference value: 12.19 +/- 1.78 U/L); type: organism-based; conditions: in vivo, 672 h
[24] = Sub-acute toxicity in albino Wistar rat assessed as change in Urea level at 2.5 mg/kg, po administered for 28 days measured post last dose (reference value: 24.54 +/- 2.12 mg/dl); type: organism-based; conditions: in vivo, 672 h
[25] = Sub-acute toxicity in albino Wistar rat assessed as change in SOD level per mg protein at 2.5 mg/kg, po administered for 28 days measured post last dose (reference value: 4.85 +/- 0.34 U); type: organism-based; conditions: in vivo, 672 h
[26] = Sub-acute toxicity in albino Wistar rat assessed as change in CAT level per mg protein at 2.5 mg/kg, po administered for 28 days measured post last dose (reference value: 28.45 +/- 2.1 U); type: organism-based; conditions: in vivo, 672 h
[27] = Sub-acute toxicity in albino Wistar rat assessed as change in MDA level per mg protein at 2.5 mg/kg, po administered for 28 days measured post last dose (reference value: 0.91 +/- 0.1 nmol); type: organism-based; conditions: in vivo, 672 h
[28] = Sub-acute toxicity in albino Wistar rat assessed as change in AST level at 5 mg/kg, po administered for 28 days measured post last dose (reference value: 25 +/- 1.76 U/L); type: organism-based; conditions: in vivo, 672 h
[29] = Sub-acute toxicity in albino Wistar rat assessed as change in serum protein level at 5 mg/kg, po administered for 28 days measured post last dose (reference value: […]); type: organism-based; conditions: in vivo, 672 h
[30] = Sub-acute toxicity in albino Wistar rat assessed as change in hemoglobin level at 5 mg/kg, po administered for 28 days measured post last dose (reference value: 12.14 +/- 1.45 g%); type: organism-based; conditions: in vivo, 672 h
[31] = Sub-acute toxicity in albino Wistar rat assessed as change in SOD level per mg protein at 5 mg/kg, po administered for 28 days measured post last dose (reference value: 4.85 +/- 0.34 U); type: organism-based; conditions: in vivo, 672 h
[32] = Sub-acute toxicity in albino Wistar rat assessed as change in CAT level per mg protein at 5 mg/kg, po administered for 28 days measured post last dose (reference value: 28.45 +/- 2.1 U); type: organism-based; conditions: in vivo, 672 h
[33] = Sub-acute toxicity in albino Wistar rat assessed as change in ALT level at 10 mg/kg, po administered for 28 days measured post last dose (reference value: 12.19 +/- 1.78 U/L); type: organism-based; conditions: in vivo, 672 h
[34] = Sub-acute toxicity in albino Wistar rat assessed as change in serum protein level at 10 mg/kg, po administered for 28 days measured post last dose (reference value: […]); type: organism-based; conditions: in vivo, 672 h
[35] = Sub-acute toxicity in albino Wistar rat assessed as change in hemoglobin level at 10 mg/kg, po administered for 28 days measured post last dose (reference value: 12.14 +/- 1.45 g%); type: organism-based; conditions: in vivo, 672 h
[36] = tested on: Mycobacterium tuberculosis; experiment: microbe, parasite or virus in culture; conditions: H37Rv ATCC 27294, 168 h
Description: Antitubercular activity against Mycobacterium tuberculosis H37Rv ATCC 27294 after 7 days by microplate alamar blue method

## CC(=O)c1c(C)n(Cc2ccccc2)c2ccc(OCc3cn(-c4ccc(Br)cc4)nn3)cc12
[1]
  selectivity ratio: 18.4
[2]
  Activity: Non-Toxic
[3]
  Activity: Toxic
[4]
  Activity: Non-Toxic
[5]
  Activity: Non-Toxic
[6]
  Activity: Non-Toxic
[7]
  Activity: Non-Toxic
[8]
  Activity: Non-Toxic
[9]
  Activity: Non-Toxic
[10]
  Activity: Non-Toxic
[11]
  Activity: Non-Toxic
[12]
  Activity: Non-Toxic
[13]
  Activity: Non-Toxic
[14]
  Activity: Non-Toxic
[15]
  Activity: Non-Toxic
[16]
  Activity: Non-Toxic
[17]
  Activity: Non-Toxic
[18]
  Activity: 25.12 mg/dL
[19]
  Activity: 4.95 U
[20]
  Activity: 29.34 U
[21]
  Activity: 0.95 nmol
[22]
  Activity: 24 U/L
[23]
  Activity: 12.68 U/L
[24]
  Activity: 26.54 mg/dL
[25]
  Activity: 5.01 U
[26]
  Activity: 30.11 U
[27]
  Activity: 1.05 nmol
[28]
  Activity: 26.75 U/L
[29]
  Activity: 7.54 mg/dL
[30]
  Activity: 13.45 g%
[31]
  Activity: 5.21 U
[32]
  Activity: 31.34 U
[33]
  Activity: 15.23 U/L
[34]
  Activity: 7.76 mg/dL
[35]
  Activity: 13.98 g%
[36]
  MIC: 3.03 µM (≈ 1.56 µg/mL)

Source: ChEMBL document CHEMBL4480432, “Expansion of a novel lead targeting M. tuberculosis DHFR as antitubercular agents” (Bioorg Med Chem, 2019)
